{"source": "patent US8577617B2", "about": "“Metabolic phenotyping” (priority 2002, dated 2013)", "key": {"male Sprague-Dawley rats [1]": {"system": "male Sprague-Dawley rats", "experiment": "Clinical chemistry analysis of plasma after dosing galactosamine HCl", "format": "in vivo, rat", "settings": "plasma 24 hours post-dosing", "protocol": "At the time of dosing (at the start of day 1) the growing rats were each approximately 260 g in mass. Galactosamine (abbreviated GaIN) HCl (from Sigma, France) was dissolved in physiological saline and dosed by intraperitoneal injection at either 200 mg/kg or at 800 mg/kg; ten animals (nos. 101-110) received the low dose and ten animals (nos. 201-210) received the high dose. Ten control animals (nos. 1-10) received an oral dose of corn oil. Five of each group of ten rats were euthanased by means of CO2 on day 2 with the remainder being euthanased by the same technique on day 8. The early-euthanased rats were numbers 6-10, 106-110 and 206-210. The late-euthanased rats were numbers 1-5, 101-105 and 201-205. Blood was sampled from the orbital sinus, under isoflurane anaesthesia. Blood was sampled from all animals on day −3 and just prior to euthanasia on either day 2 or day 8. Following euthanasia each rat was sampled for histopathological examination with the sampling including taking ten liver samples from each rat (two from each liver lobe). The blood samples were collected into vials containing lithium heparin as anticoagulant and immediately centrifuged at approx. minus four degrees C. to separate plasma. A portion of each plasma sample was analysed at thirty degrees C. on an AU600 multiparametric clinical analyser (Olympus) for a range of clinical chemistry parameters including alanine aminotransferase (ALT) and aspartate aminotransferase (AST) amongst many others."}, "male Sprague-Dawley rats [2]": {"system": "male Sprague-Dawley rats", "experiment": "1H NMR of post-dose urine after dosing galactosamine HCl (galactosamine excretion, endogenous metabolite changes, responder classification)", "format": "in vivo, rat", "protocol": "At the time of dosing (at the start of day 1) the growing rats were each approximately 260 g in mass. Galactosamine (abbreviated GaIN) HCl (from Sigma, France) was dissolved in physiological saline and dosed by intraperitoneal injection at either 200 mg/kg or at 800 mg/kg; ten animals (nos. 101-110) received the low dose and ten animals (nos. 201-210) received the high dose. Ten control animals (nos. 1-10) received an oral dose of corn oil.\nPre- and post-dose urine samples were collected for 7 hours daily into ice-cooled vessels containing sodium azide (0.100 ml of a 10% (w/v) solution of sodium azide in water) as an antibacterial preservative. There was an additional overnight urine collection on the day of dosing (from 7-24 hours post-dose). The urine collection apparatus was cleaned prior to each collection to minimise bacterial, food and faecal contamination. The urine samples were deep-frozen pending NMR analysis.\nUrine samples were prepared for NMR analysis by mixing 400 Eli of urine with 200 μl of phosphate buffer (an 81:19 (v/v) mixture of 0.2 M Na2HPO4 and 0.2 M NaH2PO4; pH 7.4); if insufficient urine was available the shortfall was made up with purified water with a minimum of 200 μl of urine being used. The urine-buffer mixture was left to stand for 10 minutes at room temperature to enable buffering to take place and then centrifuged at 13,000 rpm for a further 10 minutes to remove suspended particulates. 500 μl of ‘clear’ buffered urine was transferred to an NMR tube and 50 μl of a TSP/D2O solution added. TSP (sodium 3-trimethylsilyl-[2,2,3,3-^2H4]-1-propionate) is a chemical shift reference compound (δ 0) used in the NMR experiment and the D2O provided a field/frequency lock for the NMR spectrometer. The concentration of the TSP/D2O solution was such as to give a final TSP concentration of 0.1 mM in the NMR tube. The NMR analyses were carried out at thirty degrees C. on a Bruker AMX 600 MHz NMR spectrometer with the NOESYPRESAT pulse sequence (Claridge, 1999) used to reduce the size of the water signal. The principal acquisition parameters were:\nAfter acquisition, the NMR spectra were Fourier-transformed into 32768 data points following application of 0.3 Hz line-broadening by means of an exponential multiplication applied to the free induction decay signal. The spectra were phased to give an even baseline around the NMR signals and the chemical shift scale was set by assigning the value of δ 0 to the TSP peak. Prior to data-reduction, the baseline of each day −1 spectrum was moved to zero intensity using a straight-line baseline correction algorithm. All these spectral processing operations were carried out on a Silicon Graphics computer using the ‘xwinnmr’ software (Bruker GmBH).\nOn the basis of this visual examination, animals could be readily categorised as either (i) ‘responders’ or (ii) as ‘weak or non-responders’."}, "[3]": {"settings": "200 mg/kg i.p., individual animals 106-110, hydrochloride"}, "[4]": {"settings": "800 mg/kg i.p., individual animals 206-210, hydrochloride"}, "[5]": {"settings": "200 mg/kg i.p., animals 101-105"}, "[6]": {"settings": "800 mg/kg i.p., animals 201-205, hydrochloride"}, "[7]": {"settings": "800 mg/kg i.p., day 2 and day 3, animals 201 and 202"}, "[8]": {"settings": "800 mg/kg i.p., day 3, animals 201 and 202"}, "[9]": {"settings": "800 mg/kg i.p., day 3, animals 201 and 202, hydrochloride"}}, "note": "Values joined by “and” are separate entries in the source; they are usually repeats but may differ in a detail not shown here. Identical values can stand only once. “Also recorded” adds a separate entry of the source."}
{"compound": "Cl.N[C@H]1C(O)O[C@H](CO)[C@H](O)[C@@H]1O", "note": "(stereo partly shown) [galactosamine HCl, galactosamine hydrochloride]", "values": [{"measurement": "GGT (γ-glutamyl transferase)", "setting": "male Sprague-Dawley rats [1]; 200 mg/kg i.p., individual animals 106-110", "result": 0, "unit": "IU/L"}, {"measurement": "5′-NT (5-nucleotidase)", "setting": "male Sprague-Dawley rats [1]; [3]", "result": "23 IU/L and 21 IU/L (2×) and 19 IU/L and 27 IU/L"}, {"measurement": "A/G (albumin/globulin ratio)", "setting": "male Sprague-Dawley rats [1]; [3]", "result": "1.3 and 1.4 (3×) and 1.5"}, {"measurement": "ALAT (alanine aminotransferase)", "setting": "male Sprague-Dawley rats [1]; [3]", "result": "43 IU/L and 46 IU/L and 49 IU/L and 38 IU/L and 47 IU/L"}, {"measurement": "ALB (albumin)", "setting": "male Sprague-Dawley rats [1]; [3]", "result": "33 g/L (3×) and 37 g/L and 34 g/L"}, {"measurement": "AP (alkaline phosphatase)", "setting": "male Sprague-Dawley rats [1]; [3]", "result": "606 IU/L and 495 IU/L and 566 IU/L and 697 IU/L and 637 IU/L"}, {"measurement": "ASAT (aspartate aminotransferase)", "setting": "male Sprague-Dawley rats [1]; [3]", "result": "107 IU/L and 84 IU/L and 73 IU/L and 67 IU/L and 75 IU/L"}, {"measurement": "BILI (bilirubin)", "setting": "male Sprague-Dawley rats [1]; [3]", "result": "0.09 mg/dL and 0.05 mg/dL and 0.11 mg/dL and 0.1 mg/dL and 0.12 mg/dL"}, {"measurement": "CHOL (total cholesterol)", "setting": "male Sprague-Dawley rats [1]; [3]", "result": "73 mg/dL and 60 mg/dL and 91 mg/dL and 72 mg/dL and 81 mg/dL"}, {"measurement": "CREA (creatinine)", "setting": "male Sprague-Dawley rats [1]; [3]", "result": "0.5 mg/dL (4×) and 0.4 mg/dL"}, {"measurement": "GLUC (glucose)", "setting": "male Sprague-Dawley rats [1]; [3]", "result": "173 mg/dL and 184 mg/dL and 167 mg/dL and 138 mg/dL and 182 mg/dL"}, {"measurement": "PROT (total protein)", "setting": "male Sprague-Dawley rats [1]; [3]", "result": "59 g/L and 56 g/L and 61 g/L and 58 g/L and 57 g/L"}, {"measurement": "TBA (total bile acids)", "setting": "male Sprague-Dawley rats [1]; [3]", "result": "48.0 μmol/L and 22.0 μmol/L and 29.0 μmol/L (2×) and 23.0 μmol/L"}, {"measurement": "TRIG (triglycerides)", "setting": "male Sprague-Dawley rats [1]; [3]", "result": "94 mg/dL and 158 mg/dL and 140 mg/dL and 109 mg/dL and 127 mg/dL"}, {"measurement": "UREA (urea)", "setting": "male Sprague-Dawley rats [1]; [3]", "result": "29 mg/dL and 40 mg/dL and 33 mg/dL and 28 mg/dL (2×)"}, {"measurement": "5′-NT (5-nucleotidase)", "setting": "male Sprague-Dawley rats [1]; [4]", "result": "156 IU/L and 23 IU/L and 17 IU/L and 203 IU/L and 35 IU/L"}, {"measurement": "A/G (albumin/globulin ratio)", "setting": "male Sprague-Dawley rats [1]; [4]", "result": "1.7 and 2.1 and 1.5 and 2.4 and 1.8"}, {"measurement": "ALAT (alanine aminotransferase)", "setting": "male Sprague-Dawley rats [1]; [4]", "result": "2350 IU/L and 178 IU/L and 45 IU/L and 4300 IU/L and 479 IU/L"}, {"measurement": "ALB (albumin)", "setting": "male Sprague-Dawley rats [1]; [4]", "result": "32 g/L and 33 g/L (2×) and 34 g/L and 31 g/L"}, {"measurement": "AP (alkaline phosphatase)", "setting": "male Sprague-Dawley rats [1]; [4]", "result": "787 IU/L and 983 IU/L and 666 IU/L and 999 IU/L and 852 IU/L"}, {"measurement": "ASAT (aspartate aminotransferase)", "setting": "male Sprague-Dawley rats [1]; [4]", "result": "4320 IU/L and 264 IU/L and 79 IU/L and 10600 IU/L and 832 IU/L"}, {"measurement": "BILI (bilirubin)", "setting": "male Sprague-Dawley rats [1]; [4]", "result": "1.26 mg/dL and 0.06 mg/dL and 0.11 mg/dL and 1.37 mg/dL and 0.12 mg/dL"}, {"measurement": "CHOL (total cholesterol)", "setting": "male Sprague-Dawley rats [1]; [4]", "result": "60 mg/dL and 15 mg/dL and 61 mg/dL and 42 mg/dL and 46 mg/dL"}, {"measurement": "CREA (creatinine)", "setting": "male Sprague-Dawley rats [1]; [4]", "result": "0.4 mg/dL (4×) and 0.5 mg/dL"}, {"measurement": "GGT (γ-glutamyl transferase)", "setting": "male Sprague-Dawley rats [1]; [4]", "result": "2 IU/L and 0 IU/L (2×) and 5 IU/L and 1 IU/L"}, {"measurement": "GLUC (glucose)", "setting": "male Sprague-Dawley rats [1]; [4]", "result": "100 mg/dL and 162 mg/dL and 168 mg/dL and 80 mg/dL and 130 mg/dL"}, {"measurement": "PROT (total protein)", "setting": "male Sprague-Dawley rats [1]; [4]", "result": "51 g/L and 49 g/L and 56 g/L and 47 g/L and 48 g/L"}, {"measurement": "TBA (total bile acids)", "setting": "male Sprague-Dawley rats [1]; [4]", "result": "493 µmol/L and 43.0 µmol/L and 20.0 µmol/L and 1300 µmol/L and 65.0 µmol/L"}, {"measurement": "TRIG (triglycerides)", "setting": "male Sprague-Dawley rats [1]; [4]", "result": "38 mg/dL (2×) and 89 mg/dL and 148 mg/dL and 95 mg/dL"}, {"measurement": "UREA (urea)", "setting": "male Sprague-Dawley rats [1]; [4]", "result": "45 mg/dL and 24 mg/dL and 29 mg/dL and 40 mg/dL and 25 mg/dL"}, {"measurement": "urinary creatine", "setting": "male Sprague-Dawley rats [2]; [5]", "result": "Creatine: no increase"}, {"measurement": "urinary taurine", "setting": "male Sprague-Dawley rats [2]; [5]", "result": "instances of raised"}, {"measurement": "urinary 2-oxoglutarate", "setting": "male Sprague-Dawley rats [2]; [6]", "result": "2-Oxoglutarate: Animals 203-205 showed no obvious change and reduced levels on days 2 and 3 but very high levels on day 7."}, {"measurement": "urinary taurine", "setting": "male Sprague-Dawley rats [2]; [6]", "result": "increases; also recorded: Taurine: Animals 203-205 showed no clear change whilst; also recorded: animals 201 & 202 showed highly elevated levels"}, {"measurement": "urinary guanidinoacetic acid (GAA)", "setting": "male Sprague-Dawley rats [2]; 800 mg/kg i.p., animals 201 and 202, hydrochloride", "result": "increases; also recorded: very much increased levels on day 3 and perhaps somewhat"}, {"measurement": "urinary betaine", "setting": "male Sprague-Dawley rats [2]; 800 mg/kg i.p., day 2 and day 3, animals 201 & 202, hydrochloride", "result": "increases; also recorded: Betaine: appeared very clearly in the day 2 and day 3 samples"}, {"measurement": "urinary glucose", "setting": "male Sprague-Dawley rats [2]; [7]", "result": "Glucose: appeared to be elevated in the day 2 and day 3"}, {"measurement": "urinary urocanic acid", "setting": "male Sprague-Dawley rats [2]; [7]", "result": "Urocanic acid: appeared clearly in the day 2 and day 3"}, {"measurement": "urinary glutamate and glutamine", "setting": "male Sprague-Dawley rats [2]; 800 mg/kg i.p., day 3, animal 201", "result": "Glutamate and glutamine were elevated in the day 3 urine"}, {"measurement": "urinary histidine", "setting": "male Sprague-Dawley rats [2]; 800 mg/kg i.p., day 3, animal 201, hydrochloride", "result": "increased excretion"}, {"measurement": "urinary trimethylamine-N-oxide (TMAO)", "setting": "male Sprague-Dawley rats [2]; 800 mg/kg i.p., day 3, animals 201 & 202, hydrochloride", "result": "decreases; also recorded: levels, TMAO had essentially disappeared from the day 3"}, {"measurement": "urinary bile acids (seen as C18 methyl)", "setting": "male Sprague-Dawley rats [2]; [8]", "result": "Bile acids: clearly increased (seen as C18 methyl) in the day"}, {"measurement": "urinary threonine", "setting": "male Sprague-Dawley rats [2]; [8]", "result": "Threonine: was very clearly elevated in the day 3 samples"}, {"measurement": "urinary creatine", "setting": "male Sprague-Dawley rats [2]; [9]", "result": "increases; also recorded: Creatine: Only animals 201 and 202 showed a clear increase"}, {"measurement": "urinary hippurate", "setting": "male Sprague-Dawley rats [2]; [9]", "result": "decreased excretion; also recorded: Hippurate: was depleted in the day 3 samples from animals"}, {"measurement": "Total amount of galactosamine excreted in the urine from 0-24 hours post-dosing", "setting": "male Sprague-Dawley rats [2]; 800 mg/kg i.p., individual animals 201-210, hydrochloride", "result": "40.0 mg and 26.2 mg and 0.4 mg and 0.1 mg and 0.3 mg and 14.9 mg and 8.4 mg and 2.3 mg and 28.2 mg and 30.5 mg"}]}
